Results reported in PubChem BioAssay AID1949 (Southern Research Institute, 2009).
Converted amounts (≈) assume the structure as drawn. Results filed as inconclusive are left out. The source made the active and inactive calls. The rule behind the calls is not given here.

System: M. tuberculosis H37Rv growth inhibition
Test: Mycobacterium tuberculosis H37Rv growth inhibition, cell based, confirmatory dose response (AID 1949);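 note: bacteria grown 7 days with compound before Alamar blue readout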

Structure (SMILES)	IC50
OC(CN1CCN(C(c2ccccc2)c2ccccc2)CC1)Cn1c2ccccc2c2ccccc21 (centres undefined)	10.7 µg/mL (≈ 22.5 µM)
CSc1cccc(NC(=O)CSc2ccc(F)cc2)c1	2.86 µg/mL (≈ 9.3 µM)
CCC1CCCCN1C(=S)NC(=O)c1ccc(F)cc1 (centres undefined)	0.73 µg/mL (≈ 2.48 µM)
Cc1ccc(C(=O)Nc2ccc([N+](=O)[O-])cc2C)cc1I	< 0.1 µg/mL
CCOC(=O)c1c(NC(=O)CN2CCN(C)CC2)sc2c1CCC(C)C2 (centres undefined)	5.8 µg/mL (≈ 15.3 µM)
CC(C)(C)c1ccc(C(=O)N2CCC(C(=O)N3CCN(c4cccc(Cl)c4)CC3)CC2)cc1	> 50 µg/mL (inactive)
c1ccc(CNCCCOc2cccc3ccccc23)cc1	4.89 µg/mL (≈ 16.8 µM)
COC(=O)COc1ccc(-c2ccc(C)cc2)cc1	0.22 µg/mL (≈ 0.858 µM)
CCCCC(=O)NC(=S)NNC(=O)c1ccc(C)c(Br)c1	2.79 µg/mL (≈ 7.49 µM)
CCC(C)NCCCCOc1ccc(Cl)cc1C(C)(C)C (centres undefined)	4.49 µg/mL (≈ 14.4 µM)
O=C(OCc1c(Cl)cccc1Cl)c1cc2ccccc2oc1=O	> 50 µg/mL (inactive)
Cc1ccccc1Nc1nc(-c2ccccn2)cs1	< 0.1 µg/mL
Cc1ccc(SCC(=O)Nc2ccc(C)c(C)c2)cc1	3.4 µg/mL (≈ 11.9 µM)
O=C(/C=C/c1ccccc1OC(=O)c1cccnc1)c1ccc(Cl)cc1	5.61 µg/mL (≈ 15.4 µM)
CC(=O)c1ccc(NCCC(=O)c2ccco2)cc1	2.8 µg/mL (≈ 10.9 µM)
Cc1cc(C)c(N2CCN(S(=O)(=O)c3ccc(Cl)cc3)CC2)c(C)c1	> 50 µg/mL (inactive)
Cc1ccc(-n2cnc3cc(NCc4cccs4)ccc32)cc1	2.87 µg/mL (≈ 8.98 µM)
O=C(CCN1CCCCCC1)c1ccc(Cl)cc1	22.7 µg/mL (≈ 85.5 µM)
c1ccc(COc2ccc(OCCCCn3ccnc3)cc2)cc1	5.37 µg/mL (≈ 16.7 µM)
COc1ccc(C(=O)NC(=S)NNC(=O)c2ccc(OC)c(OC)c2)cc1Br	< 0.1 µg/mL

Structure (SMILES)	IC50
COC(=O)c1cc(NC(=O)Nc2cccc(Cl)c2)cc(C(=O)OC)c1	0.18 µg/mL (≈ 0.496 µM)
COc1ccc2nc(C)cc(Nc3ccccc3O)c2c1	8.28 µg/mL (≈ 29.5 µM)
C/C(=N/N=C1\NC(=O)C(Cc2ccc(Cl)cc2)S1)c1ccc(F)cc1 (centres undefined)	19 µg/mL (≈ 50.6 µM)
CC(C)(C)c1ccc(C(=O)NC(=S)Nc2ccc(F)cc2)cc1Br	2.51 µg/mL (≈ 6.13 µM)
O=C(CSc1nnc(-c2ccncc2)o1)Nc1ccc(Cl)cn1	5.59 µg/mL (≈ 16.1 µM)
CCc1c(C)c2ccc(OCC(=O)OC)c(C)c2oc1=O	0.54 µg/mL (≈ 1.86 µM)
COc1ccc(CCNC(=O)c2ccc(C#CC(C)(C)O)s2)cc1	< 0.1 µg/mL
O=C(CSc1n[nH]c(-c2ccc(Cl)cc2)n1)Nc1ccccc1Cl	4.21 µg/mL (≈ 11.1 µM)
O=C(NC(=S)N1CCCCCC1)c1ccc([N+](=O)[O-])cc1	1.42 µg/mL (≈ 4.62 µM)
Cc1ccc(C2=CC(c3cccc([N+](=O)[O-])c3)n3nnnc3N2)cc1C (centres undefined)	12.2 µg/mL (≈ 35 µM)
O=C(OCc1ccccc1Cl)C1(O)c2ccccc2-c2ccccc21	2.76 µg/mL (≈ 7.87 µM)
CN(C)C(=S)NC(=O)c1cccc(Cl)c1	4.63 µg/mL (≈ 19.1 µM)
Cc1cc(Nc2ccc(N(C)C)cc2)c2cccc(C)c2n1	4.43 µg/mL (≈ 15.2 µM)
Cc1ccc(-c2[nH]c(-c3cc([N+](=O)[O-])ccc3O)nc2-c2ccccc2)cc1	5.58 µg/mL (≈ 15 µM)
CCN(CC)c1ccc(NC(=O)C(C)Oc2cccc(Cl)c2)cc1 (centres undefined)	6.4 µg/mL (≈ 18.5 µM)
Cc1cc(NS(=O)(=O)c2ccc(NC(=O)c3ccc(C(C)(C)C)cc3)cc2)no1	1.76 µg/mL (≈ 4.26 µM)
Cc1nc(Nc2nc3c(c(=O)[nH]2)CCCC3)nc2c(C)cccc12	28.1 µg/mL (≈ 87.4 µM)
N#Cc1ccc(NC(=O)Nc2cccc(Cl)c2)cc1	4.6 µg/mL (≈ 16.9 µM)
Cn1c(Sc2ccc([N+](=O)[O-])c3cccnc23)nnc1-c1ccccc1	0.8 µg/mL (≈ 2.2 µM)
CCn1c(/C=C/c2ccc(F)cc2)nc2ccccc21	8.17 µg/mL (≈ 30.7 µM)

Structure (SMILES)	IC50
COc1cc(CNC(C)c2ccccc2)cc(Br)c1OCc1ccccc1 (centres undefined)	6.21 µg/mL (≈ 14.6 µM)
O=C(NC(=S)Nc1cccc(C(F)(F)F)c1)c1cccs1	2.39 µg/mL (≈ 7.23 µM)
C=CCc1ccccc1OCCCCn1ccnc1	3.93 µg/mL (≈ 15.3 µM)
Cn1nc(-c2ccc(N3CCCCC3)c(NC(=O)c3ccco3)c2)c2ccccc2c1=O	> 50 µg/mL (inactive)
O=C(Oc1ccc(Cl)c2cccnc12)c1ccc(Cl)cc1Cl	11.6 µg/mL (≈ 32.9 µM)
O=C(Nc1ccc(F)c(Cl)c1)C1CC2CCCC(C1)C2=O (centres undefined)	39.7 µg/mL (≈ 128 µM)
O=C(Nc1ccc([N+](=O)[O-])cc1)N1CCN(c2cccc(C(F)(F)F)c2)CC1	1.56 µg/mL (≈ 3.96 µM)
CN(c1ccccc1)c1ccc([N+](=O)[O-])c2nonc12	< 0.1 µg/mL
COC(=O)COc1ccc(NC(=O)c2cccc(C)c2)cc1	0.58 µg/mL (≈ 1.94 µM)
Cc1ccc(N2CC(C(=O)Nc3ncc([N+](=O)[O-])s3)CC2=O)cc1 (centres undefined)	28.3 µg/mL (≈ 81.6 µM)
Cc1ccn2c(-c3csc(Nc4ccccn4)n3)c(C)nc2c1	0.24 µg/mL (≈ 0.747 µM)
O=C(Nc1ccc(-c2nc3ccccc3c(=O)o2)cc1)C(c1ccccc1)c1ccccc1	> 50 µg/mL (inactive)
C#Cc1cccc(NC(=O)COc2ccc(Cl)cc2)c1	8.18 µg/mL (≈ 28.6 µM)
Cn1c(NC(=O)c2ccccc2)nc2ccccc21	0.57 µg/mL (≈ 2.27 µM)
Cc1ccc(Cl)cc1N1CCN(CC(O)COc2ccc(C(=O)c3ccccc3)cc2)CC1 (centres undefined)	2.94 µg/mL (≈ 6.32 µM)
CCOC(=O)c1ccc(NC(=O)CSc2nnc(-c3ccc(OC)cc3)o2)cc1	0.17 µg/mL (≈ 0.411 µM)
Cc1ccccc1OCCCCn1cnc2ccccc21	6.34 µg/mL (≈ 22.6 µM)
Cc1ccc(NC(=O)COc2ccc(F)cc2)cc1	> 50 µg/mL (inactive)
COc1cc([N+](=O)[O-])ccc1NC(=S)Nc1ccc(OC(F)F)c(Cl)c1	3.41 µg/mL (≈ 8.44 µM)
